Laboratory results taken from patent publication US11820766B2, “Monoacylglycerol lipase modulators” (Janssen Pharmaceutica NV, priority 2018, dated 2023).

molecular target: T1, human MGL from HeLa cells (Homo sapiens, UniProt Q99685); test: In vitro MGL activity assay: [glycerol-1,3-3H]-oleyl glycerol cleavage by MGL from HeLa cells; type: biochemical; conditions: 300 nM [Glycerol-1,3-3H]-oleyl glycerol, one hour
T1 construct: combining endogenously expressed MGL from HeLa cells with test compounds; endogenous in cells; host or cells: HeLa cells / cell homogenates
T1 sequence (Q99685 1-303): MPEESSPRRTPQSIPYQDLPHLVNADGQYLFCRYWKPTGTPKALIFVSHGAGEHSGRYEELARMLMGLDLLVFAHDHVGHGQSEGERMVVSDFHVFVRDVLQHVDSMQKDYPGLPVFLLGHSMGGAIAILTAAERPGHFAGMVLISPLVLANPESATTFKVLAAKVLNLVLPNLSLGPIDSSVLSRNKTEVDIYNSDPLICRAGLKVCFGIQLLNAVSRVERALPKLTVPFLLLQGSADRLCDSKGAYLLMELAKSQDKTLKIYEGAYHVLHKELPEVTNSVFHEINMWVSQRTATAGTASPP
From the text: MGL is the predominant hydrolase in HeLa cells/cell homogenates.

Compound	IC50 [nM]
C[C@H]1c2nn(C)c(-c3cc(F)c(F)c(F)c3)c2CCN1C(=O)c1cn(C)nc1C1(C)CC1 [Example 347, [(7S)-2,7-Dimethyl-3-(3,4,5-trifluorophenyl)-5,7-dihydro-4H-pyrazolo[3,4-c]pyridin-6-yl]-[1-methyl-3-(1-methylcyclopropyl)pyrazol-4-yl]methanone]	2490
C[C@H]1c2nn(C)c(-c3cc(F)c(F)c(F)c3)c2CCN1C(=O)c1cn(C)nc1C1(F)CC1 [Example 348, [(7S)-2,7-Dimethyl-3-(3,4,5-trifluorophenyl)-5,7-dihydro-4H-pyrazolo[3,4-c]pyridin-6-yl]-[3-(1-fluorocyclopropyl)-1-methyl-pyrazol-4-yl]methanone]	848
C[C@@H]1c2nn(-c3ccccc3)c(-c3ccccc3)c2CCN1C(=O)c1cnn(C)c1C1CC1 [Example 349, (R)-(5-cyclopropyl-1-methyl-1H-pyrazol-4-yl) (7-methyl-2,3-diphenyl-2,4,5,7-tetrahydro-6H-pyrazolo[3,4-c]pyridin-6-yl) methanone]	1080
C[C@H]1c2nn(-c3ccccc3)c(-c3ccccc3)c2CCN1C(=O)c1cnn(C)c1C1CC1 [Example 350, (S)-(5-cyclopropyl-1-methyl-1H-pyrazol-4-yl) (7-methyl-2,3-diphenyl-2,4,5,7-tetrahydro-6H-pyrazolo[3,4-c]pyridin-6-yl)methanone]	27.6
Cc1c(C(=O)N2CCc3c(nn(C)c3-c3cc(F)c(F)c(F)c3)[C@@H]2C)ccn1C [Example 351, (1,2-Dimethylpyrrol-3-yl)-[(7S)-2,7-dimethyl-3-(3,4,5-trifluorophenyl)-5,7-dihydro-4H-pyrazolo[3,4-c]pyridin-6-yl]methanone]	8.9
Cc1onc(C(=O)N2CCc3c(nn(C)c3-c3cc(F)c(F)c(F)c3)[C@@H]2C)c1C [Example 352, (4,5-Dimethylisoxazol-3-yl)-[(7S)-2,7-dimethyl-3-(3,4,5-trifluorophenyl)-5,7-dihydro-4H-pyrazolo[3,4-c]pyridin-6-yl]methanone]	30.5
C[C@H]1c2nn(C)c(-c3cc(F)c(F)c(F)c3)c2CCN1C(=O)c1cc2[nH]ccc2cc1F [Example 353, [(7S)-2,7-Dimethyl-3-(3,4,5-trifluorophenyl)-5,7-dihydro-4H-pyrazolo[3,4-c]pyridin-6-yl]-(5-fluoro-1H-indol-6-yl)methanone]	48.5
C[C@H]1c2nn(C)c(-c3cc(F)c(F)c(F)c3)c2CCN1C(=O)c1ccc(F)c2[nH]ccc12 [Example 354, [(7S)-2,7-Dimethyl-3-(3,4,5-trifluorophenyl)-5,7-dihydro-4H-pyrazolo[3,4-c]pyridin-6-yl]-(7-fluoro-1H-indol-4-yl)methanone]	2.23
C[C@H]1c2nn(C)c(-c3cc(F)c(F)c(F)c3)c2CCN1C(=O)c1c[nH]c2ccc(F)cc12 [Example 355, [(7S)-2,7-Dimethyl-3-(3,4,5-trifluorophenyl)-5,7-dihydro-4H-pyrazolo[3,4-c]pyridin-6-yl]-(5-fluoro-1H-indol-3-yl)methanone]	22.8
C[C@H]1c2nn(C)c(-c3cc(F)c(F)c(F)c3)c2CCN1C(=O)c1cn(C)c2ccc(F)cc12 [Example 356, [(7S)-2,7-Dimethyl-3-(3,4,5-trifluorophenyl)-5,7-dihydro-4H-pyrazolo[3,4-c]pyridin-6-yl]-(5-fluoro-1-methyl-indol-3-yl)methanone]	18.6
C[C@H]1c2nn(C)c(-c3cc(F)c(F)c(F)c3)c2CCN1C(=O)c1c[nH]c2cccc(F)c12 [Example 357, [(7S)-2,7-Dimethyl-3-(3,4,5-trifluorophenyl)-5,7-dihydro-4H-pyrazolo[3,4-c]pyridin-6-yl]-(4-fluoro-1H-indol-3-yl)methanone]	8.88
C[C@H]1c2nn(C)c(-c3cc(F)c(F)c(F)c3)c2CCN1C(=O)c1c[nH]c2cc(F)ccc12 [Example 358, [(7S)-2,7-Dimethyl-3-(3,4,5-trifluorophenyl)-5,7-dihydro-4H-pyrazolo[3,4-c]pyridin-6-yl]-(6-fluoro-1H-indol-3-yl)methanone]	37.6
C[C@H]1c2nn(C)c(-c3cc(F)c(F)c(F)c3)c2CCN1C(=O)c1c[nH]c2c(F)cccc12 [Example 359, [(7S)-2,7-Dimethyl-3-(3,4,5-trifluorophenyl)-5,7-dihydro-4H-pyrazolo[3,4-c]pyridin-6-yl]-(7-fluoro-1H-indol-3-yl)methanone]	31
Cc1ccc2c(C(=O)N3CCc4c(nn(C)c4-c4cc(F)c(F)c(F)c4)[C@@H]3C)c[nH]c2c1 [Example 360, [(7S)-2,7-Dimethyl-3-(3,4,5-trifluorophenyl)-5,7-dihydro-4H-pyrazolo[3,4-c]pyridin-6-yl]-(6-methyl-1H-indol-3-yl)methanone]	46.8
C[C@H]1c2nn(C)c(-c3cc(F)c(F)c(F)c3)c2CCN1C(=O)c1n[nH]c2ccccc12 [Example 361, [(7S)-2,7-Dimethyl-3-(3,4,5-trifluorophenyl)-5,7-dihydro-4H-pyrazolo[3,4-c]pyridin-6-yl]-(1H-indazol-3-yl)methanone]	14.6
C[C@H]1c2nn(C)c(-c3cc(F)c(F)c(F)c3)c2CCN1C(=O)c1n[nH]c2cccc(F)c12 [Example 362, [(7S)-2,7-Dimethyl-3-(3,4,5-trifluorophenyl)-5,7-dihydro-4H-pyrazolo[3,4-c]pyridin-6-yl]-(4-fluoro-1H-indazol-3-yl)methanone]	2.74
C[C@H]1c2nn(C)c(-c3cc(F)c(F)c(F)c3)c2CCN1C(=O)c1n[nH]c2cc(F)ccc12 [Example 363, [(7S)-2,7-Dimethyl-3-(3,4,5-trifluorophenyl)-5,7-dihydro-4H-pyrazolo[3,4-c]pyridin-6-yl]-(6-fluoro-1H-indazol-3-yl)methanone]	44.1
C[C@H]1c2nn(C)c(-c3cc(F)c(F)c(F)c3)c2CCN1C(=O)c1n[nH]c2ccc(F)cc12 [Example 364, [(7S)-2,7-Dimethyl-3-(3,4,5-trifluorophenyl)-5,7-dihydro-4H-pyrazolo[3,4-c]pyridin-6-yl]-(5-fluoro-1H-indazol-3-yl)methanone]	20.3
C[C@H]1c2nn(C)c(-c3cc(F)c(F)c(F)c3)c2CCN1C(=O)c1cccc2c1ncn2C [Example 366, [(7S)-2,7-Dimethyl-3-(3,4,5-trifluorophenyl)-5,7-dihydro-4H-pyrazolo[3,4-c]pyridin-6-yl]-(1-methylbenzimidazol-4-yl)methanone]	51.9
C[C@H]1c2nn(C)c(-c3cc(F)c(F)c(F)c3)c2CCN1C(=O)c1cccc2[nH]nnc12 [Example 367, 1H-Benzotriazol-4-yl-[(7S)-2,7-dimethyl-3-(3,4,5-trifluorophenyl)-5,7-dihydro-4H-pyrazolo[3,4-c]pyridin-6-yl]methanone]	658
C[C@H]1c2nn(C)c(-c3cc(F)c(F)c(F)c3)c2CCN1C(=O)c1cnc2[nH]ccc2c1 [Example 368, [(7S)-2,7-Dimethyl-3-(3,4,5-trifluorophenyl)-5,7-dihydro-4H-pyrazolo[3,4-c]pyridin-6-yl]-(1H-pyrrolo[2,3-b]pyridin-5-yl)methanone]	9.36
C[C@H]1c2nn(C)c(-c3cc(F)c(F)c(F)c3)c2CCN1C(=O)c1c(F)cnc2[nH]ccc12 [Example 369, [(7S)-2,7-Dimethyl-3-(3,4,5-trifluorophenyl)-5,7-dihydro-4H-pyrazolo[3,4-c]pyridin-6-yl]-(5-fluoro-1H-pyrrolo[2,3-b]pyridin-4-yl)methanone]	1.88
C[C@H]1c2nn(C)c(-c3cc(F)c(F)c(F)c3)c2CCN1C(=O)c1c(F)cnc2c1ccn2C [Example 370, [(7S)-2,7-Dimethyl-3-(3,4,5-trifluorophenyl)-5,7-dihydro-4H-pyrazolo[3,4-c]pyridin-6-yl]-(5-fluoro-1-methyl-pyrrolo[2,3-b]pyridin-4-yl)methanone]	0.3
C[C@H]1c2nn(C)c(-c3cc(F)c(F)c(F)c3)c2CCN1C(=O)c1c(C(F)(F)F)cnc2[nH]ccc12 [Example 371, [(7S)-2,7-Dimethyl-3-(3,4,5-trifluorophenyl)-5,7-dihydro-4H-pyrazolo[3,4-c]pyridin-6-yl]-[5-(trifluoromethyl)-1H-pyrrolo[2,3-b]pyridin-4-yl] methanone]	136
C[C@H]1c2nn(C)c(-c3cc(F)c(F)c(F)c3)c2CCN1C(=O)c1c[nH]c2ncccc12 [Example 373, [(7S)-2,7-Dimethyl-3-(3,4,5-trifluorophenyl)-5,7-dihydro-4H-pyrazolo[3,4-c]pyridin-6-yl]-(1H-pyrrolo[2,3-b]pyridin-3-yl)methanone]	23.2
C[C@H]1c2nn(C)c(-c3cc(F)c(F)c(F)c3)c2CCN1C(=O)c1c[nH]c2ncc(F)cc12 [Example 374, [(7S)-2,7-Dimethyl-3-(3,4,5-trifluorophenyl)-5,7-dihydro-4H-pyrazolo[3,4-c]pyridin-6-yl]-(5-fluoro-1H-pyrrolo[2,3-b]pyridin-3-yl)methanone]	21
Cc1[nH]c2ncccc2c1C(=O)N1CCc2c(nn(C)c2-c2cc(F)c(F)c(F)c2)[C@@H]1C [Example 375, [(7S)-2,7-Dimethyl-3-(3,4,5-trifluorophenyl)-5,7-dihydro-4H-pyrazolo[3,4-c]pyridin-6-yl]-(2-methyl-1H-pyrrolo[2,3-b]pyridin-3-yl)methanone]	30.3
C[C@H]1c2nn(C)c(-c3cc(F)c(F)c(F)c3)c2CCN1C(=O)c1nccc2cc[nH]c12 [Example 376, [(7S)-2,7-Dimethyl-3-(3,4,5-trifluorophenyl)-5,7-dihydro-4H-pyrazolo[3,4-c]pyridin-6-yl]-(1H-pyrrolo[2,3-c]pyridin-7-yl)methanone]	599
